Source: ChEMBL document CHEMBL2040800 (J Med Chem, 2012)
The source made the active and inactive calls. The rule behind the calls is not given here.

Legend:
[1] = AUC (0 to infinity) in Sprague-Dawley rat at 22.3 mg/kg, po; type: ADME, organism-based; parameters: time infinity, dose 22.3 mg/kg, route oral; conditions: plasma
[2] = Total blood clearance in Sprague-Dawley rat at […], iv; type: ADME, organism-based; parameters: dose 4.7 mg/kg, route intravenous; conditions: whole blood
[3] = Total plasma clearance in Sprague-Dawley rat at […], iv; type: ADME, organism-based; parameters: dose 4.7 mg/kg, route intravenous
[4] = Volume of distribution at steady state in Sprague-Dawley rat at […], iv; type: ADME, organism-based; parameters: dose 4.7 mg/kg, route intravenous; conditions: in vivo, read-out: Vdss
[5] = Apparent terminal half life in Sprague-Dawley rat at […], iv; type: ADME, organism-based; parameters: dose 4.7 mg/kg, route intravenous; conditions: in vivo, read-out: betat1/2(app) (converted)
Plasmodium berghei [6] = assay: Antimalarial activity against Plasmodium berghei ANKA expressing GFP infected in Sprague-Dawley rat assessed as mean survival days of host at 3 mg/kg, po administered as single dose; type: functional
Plasmodium berghei [7] = assay: Antimalarial activity against Plasmodium berghei ANKA expressing GFP infected in Sprague-Dawley rat assessed as reduction in parasitemia at 10 mg/kg, po administered as single dose measured on day 3 post-infection by flow cytometry; type: functional; parameters: scale not given: the % may be the effect or the level left
[8] = Tmax in Sprague-Dawley rat at 22.3 mg/kg, po; type: ADME, organism-based; parameters: dose 22.3 mg/kg, route oral; conditions: in vivo
Plasmodium berghei [9] = assay: Antimalarial activity against Plasmodium berghei ANKA expressing GFP infected in Sprague-Dawley rat assessed as mean survival days of host at 10 mg/kg, po administered as single dose; type: functional
Plasmodium berghei [10] = assay: Antimalarial activity against Plasmodium berghei ANKA expressing GFP infected in po dosed Sprague-Dawley rat assessed as reduction in parasitemia administered as single dose measured on day 3 post-infection by flow cytometry; type: functional; conditions: 72 h
[11] = Half life in human liver microsomes at 1 uM; type: ADME, Microsome
[12] = AUC (0 to infinity) in Sprague-Dawley rat at […], iv; type: ADME, organism-based; parameters: time infinity, dose 4.7 mg/kg, route intravenous; conditions: plasma
Plasmodium berghei [13] = assay: Antimalarial activity against Plasmodium berghei ANKA expressing GFP infected in Sprague-Dawley rat assessed as mean survival days of host at 50 mg/kg, po administered as 4 doses; type: functional
[14] = Cmax in Sprague-Dawley rat at 5 mg/kg, po; type: ADME, organism-based; parameters: dose 5 mg/kg, route oral; conditions: in vivo
[15] = Intrinsic clearance in human liver microsomes at 1 uM up to 60 mins; type: ADME, Microsome; conditions: read-out: CLH
[16] = Oral bioavailability in Sprague-Dawley rat at 5 mg/kg; type: ADME, organism-based; conditions: in vivo
Plasmodium berghei [17] = assay: Antimalarial activity against Plasmodium berghei ANKA expressing GFP infected in Sprague-Dawley rat assessed as mean survival days of host at 30 mg/kg, po administered as single dose; type: functional
Plasmodium berghei [18] = assay: Antimalarial activity against Plasmodium berghei ANKA expressing GFP infected in Sprague-Dawley rat assessed as reduction in parasitemia at 100 mg/kg, po administered as single dose measured on day 3 post-infection by flow cytometry; type: functional; parameters: scale not given: the % may be the effect or the level left
[19] = Apparent terminal half life in Sprague-Dawley rat at 22.3 mg/kg, po; type: ADME, organism-based; parameters: dose 22.3 mg/kg, route oral; conditions: in vivo, read-out: betat1/2(app) (converted)
Plasmodium berghei [20] = assay: Antimalarial activity against Plasmodium berghei ANKA expressing GFP infected in Sprague-Dawley rat assessed as reduction in parasitemia at 3 mg/kg, po administered as single dose measured on day 3 post-infection by flow cytometry; type: functional; parameters: scale not given: the % may be the effect or the level left
[21] = Oral bioavailability in Sprague-Dawley rat at 22.3 mg/kg; type: ADME, organism-based; conditions: in vivo
[22] = Apparent terminal half life in Sprague-Dawley rat at 5 mg/kg, po; type: ADME, organism-based; parameters: dose 5 mg/kg, route oral; conditions: in vivo, read-out: betat1/2(app) (converted)
[23] = Cmax in Sprague-Dawley rat at 22.3 mg/kg, po; type: ADME, organism-based; parameters: dose 22.3 mg/kg, route oral; conditions: in vivo
[24] = AUC (0 to infinity) in Sprague-Dawley rat at 5 mg/kg, po; type: ADME, organism-based; parameters: time infinity, dose 5 mg/kg, route oral; conditions: plasma
[25] = Tmax in Sprague-Dawley rat at 5 mg/kg, po; type: ADME, organism-based; parameters: dose 5 mg/kg, route oral; conditions: in vivo
Plasmodium berghei [26] = assay: Antimalarial activity against Plasmodium berghei ANKA expressing GFP infected in Sprague-Dawley rat assessed as total cure from parasite at 50 mg/kg, po administered as 4 doses measured on day 30 post-infection by flow cytometry; type: functional, organism-based; parameters: dose 50 mg/kg
Plasmodium berghei [27] = assay: Antimalarial activity against Plasmodium berghei ANKA expressing GFP infected in Sprague-Dawley rat assessed as mean survival days of host at 100 mg/kg, po administered as single dose; type: functional
Plasmodium berghei [28] = assay: Antimalarial activity against Plasmodium berghei ANKA expressing GFP infected in Sprague-Dawley rat assessed as host survival at 3 mg/kg, po administered as single dose measured 6 days post-infection; type: functional, organism-based; parameters: dose 3 mg/kg
Plasmodium berghei [29] = assay: Antimalarial activity against Plasmodium berghei ANKA expressing GFP infected in Sprague-Dawley rat assessed as reduction in parasitemia at 30 mg/kg, po administered as single dose measured on day 3 post-infection by flow cytometry; type: functional; parameters: scale not given: the % may be the effect or the level left
Plasmodium berghei [30] = assay: Antimalarial activity against Plasmodium berghei ANKA expressing GFP infected in Sprague-Dawley rat assessed as reduction in parasitemia at 50 mg/kg, po administered as 4 doses measured on day 4 post-infection by flow cytometry; type: functional; parameters: scale not given: the % may be the effect or the level left
[31] = Partition coefficient, log D of the compound at pH 7.4 by phase gradient HPLC analysis; type: physicochemical; conditions: octanol/water

Which AUC(0-inf) [1] does the source give for `COc1ccc(-c2cc(-c3ccc(S(C)(=O)=O)cc3)cnc2N)cn1` here?
Its AUC(0-inf) is 115 µM·h.

And the clearance [2]?
Its clearance is 18.3 mL/min/kg.

And the clearance [3]?
Its clearance is 16.7 mL/min/kg.

And the Vd [4]?
The Vd was 4.3 L/kg.

And the half-life [5]?
The half-life was 8 h.

And the MSD (Plasmodium berghei [6])?
The MSD was 3 days.

And the Activity (Plasmodium berghei [7])?
The Activity was 82%.

What about the Tmax [8] of the same compound?
The Tmax was 1.75 h.

What about the MSD (Plasmodium berghei [9]) of the same compound?
The MSD was 7 days.

And the ED50 (Plasmodium berghei [10])?
The ED50 was 4.7 mg/kg.

And the ED90 (Plasmodium berghei [10])?
The ED90 was 17 mg/kg.

What about the half-life at 1 µM [11] of the same compound?
The half-life at 1 µM was > 1.65 h.

And the AUC(0-inf) [12]?
The AUC(0-inf) was 13.2 µM·h.

What about the MSD (Plasmodium berghei [13]) of the same compound?
The MSD was >30 days.

And the Cmax [14]?
Its Cmax is 5.4 µM.

What about the microsomal CLint at 1 µM [15] of the same compound?
The microsomal CLint at 1 µM was < 28 µL/min/mg.

What about the bioavailability [16] of the same compound?
The bioavailability was 83%.

What about the MSD (Plasmodium berghei [17]) of the same compound?
Its MSD is 8 days.

What about the Activity (Plasmodium berghei [18]) of the same compound?
The Activity was >99.3%.

And the half-life [19]?
The half-life was 6.5 h.

And the Activity (Plasmodium berghei [20])?
Its Activity is <40%.

What about the bioavailability [21] of the same compound?
The bioavailability was > 100%.

And the half-life [22]?
Its half-life is 6.7 h.

What about the Cmax [23] of the same compound?
The Cmax was 21 µM.

And the AUC(0-inf) [24]?
Its AUC(0-inf) is 11.8 µM·h.

What about the Tmax [25] of the same compound?
The Tmax was 0.25 h.

What about the Activity (Plasmodium berghei [26]) of the same compound?
The Activity was “Active”.

What about the MSD (Plasmodium berghei [27]) of the same compound?
The MSD was 21 days.

What about the Activity (Plasmodium berghei [28]) of the same compound?
The Activity was “inactive”.

And the Activity (Plasmodium berghei [29])?
The Activity was 99%.

And the Activity (Plasmodium berghei [30])?
Its Activity is 99.8%.

And the chromatographic logD [31]?
The chromatographic logD was 2.2.
